{
  "source": "patent US8318815B2",
  "about": "“Method for treatment of tumors using nordihydroguaiaretic acid derivatives” (priority 1999, dated 2012)",
  "key": {"TC-1 cell line": {"test_system": "TC-1 cell line", "assay": "TC-1 cell growth", "conditions": "TC-1 cells", "experimental": "(§1) FIG. 9. […] (a-d) C3, CEM-T4, C33a, and TC-1 cells were treated with different concentrations of M4N. The number of cells present at the initiation of the experiment is indicated as Day 0. After three days the number of viable cells were counted and plotted versus the M4N concentration. […] After 3 days, one-half of the M4N treated cells were given fresh media containing only 1% DMSO (M-D), while the rest of the cells were given fresh media with the same conditions (second media change). The cells were counted daily and plotted versus the time of treatment."}, "C3 tumor [1]": {"test_system": "C3 tumor", "assay": "Histopathology of excised C3 tumors", "type": "in vivo, mice", "conditions": "hematoxylin and eosin sections", "experimental": "Drug treated (M4N) and DMSO vehicle-treated or untreated tumors (CON) from two groups of mice were prepared for histopathology examination. The excised tumors were immediately fixed and then stored in 4% formaldehyde in phosphate buffered saline. The fixed tissue was then dehydrated through a series of graded alcohols and xylene and embedded in paraffin. The paraffin tissue blocks were thin sectioned and stained for microscopy with hematoxylin and eosin. […] They show the high nuclear/cytoplasmic ratio, pleomorphic nuclear changes, high mitotic figures, spindle like sarcoma shape, and infiltration into the surrounding tissue characteristic of cancer cells."}, "CEM-T4 cells": {"test_system": "CEM-T4 cells", "assay": "Cell cycle DNA content by propidium iodide flow cytometry, CEM-T4", "conditions": "CEMT4, 72 hours", "quoted_text": "The cells were trypsinized, fixed with ethanol, stained with propidium iodide, and were subsequently analyzed by flow cytommetry. […] The indicated stages of the cell cycle are labeled and correspond to the relative cellular DNA compliment as determined by staining intensity."}, "C3 cells": {"test_system": "C3 cells", "experimental": "as §1\nHPV-16 transformed immortal mouse epithelial cells (C3 cells) were plated at a density of 10^5 cells per vial.\nThe effect on C3 growth following removal of M4N from the medium was also examined. C3 cells were plated at a density of 10^4 cells per vial. […] The other ⅔ of the cell vials were washed and replaced with the same media administered before.\nThis hypothesis was tested by examining the antiproliferative effect of M4N on a number of different cell lines."}, "CDC2 mRNA": {"test_system": "CDC2 mRNA", "assay": "Northern blot of CDC2 mRNA in C3 cells", "conditions": "40 μM"}, "[2]": {"test_system": "cellular gene expression in C3 cells", "assay": "9600 gene array hybridization of C3 cells", "type": "cell-based, mouse", "conditions": "72 hrs", "description": "Gene expression with 9600 gene arrays was studied (FIG. 5). Five micrograms each of poly A^+RNA from 72 hrs. M4N ([…]) treated (C3 M4N) and non-treated (C3 DMSO) was used in a pair of human 9600 gene array hybridization study according to the procedure described in Genomics 51, 313-324 1998. The hybridization image was captured by a color video camera with a Nikon 55 mm AF micro Niko lens and digitized by a Macintosh LC630 computer. Such detection via enzyme substrate reaction of color-forming enzymes in either single or dual-color mode is reproducible and extremely sensitive (can detect <5 copies of transcript per cell with RNAs from 10^7 cells).\n[…]. Image files in TIFF format and data files in MS excel format are kept on ZIP diskette. Gene names and clone ID numbers are available for obtaining Image clones for future northern blot confirmation."}, "survivin gene expression": {"test_system": "survivin gene expression", "assay": "RT-PCR analysis of survivin gene expression in C3 cells", "type": "cell-based, mouse", "conditions": "40 μM", "experimental": "FIG. 17. RT-PCR Analysis of Survivin Gene Expression. […] Bottom: the corresponding GAPDH controls. Band intensities were quantitated with Scion Image. (b) Survivin RT-PCR product signals were normalized to those of the GAPDH controls and plotted.\nM4N Treatment. C3 cells (5×10^6) were seeded in 150-mm plates and allowed to attach to the plates. Twenty-four hours after seeding, cultures were washed twice with PBS and treated with M4N dissolved in 1% DMSO mixed with the growth medium.\nRT-PCR analysis. mRNA was isolated by the guanidinium thiocyanate and phenol method from the cultured cells as described in Molecular Cloning (40). […] The c-DNA products obtained were amplified under the PCR conditions: […], 60° C. for 55 seconds, and 72° C. for 1 minute for 30 cycles."}, "C3 tumor [3]": {"test_system": "C3 tumor", "assay": "C3 tumor growth in mice, local (intratumoral) injection", "type": "in vivo", "experimental": "Thirty six C57b1-16 NCR mice were injected with 5×10^5 C3 cells between the shoulders on the backs of the mice. Twenty four of the mice developed tumors within 20 days. […]\n36 C57b1-16NCR mice were injected with 5×10^5 C3 cells/mouse. Injections were 100 μL made subcutaneously between the shoulders on the backs of the mice. Cells were suspended in low-salt HBSS and suspension uniformity was maintained by gentle vortexing.\n24 mice developed tumors. Their lesion sizes were measured by dial caliper. These mice were shaved, weight and treatment begun (Day 1). Four were sequestered as controls. Control mice received 50 μl DMSO injected intratumorally daily. […]. Injections were made to several regions of tumor. Mice anesthetized with ether or metaphane prior to injection.\nThe treatment regimen and results were as follows: • Day 10: Mice weighed again. […]. The skin at the lesion site of #17 cracked with the “dried-out tumor” showing. It was dissected, and lesion excised and weighed. […]. Remaining control mice (#1, 3, 4) were examined non-invasively and were carrying tumors. • Day 21: Tumor sizes from control mice were measured by dial caliper. […]. […]"}, "[4]": {"conditions": "mice carrying multiple tumors, per mouse"}, "[5]": {"conditions": "mice with single tumors, per mouse"}},
  "note": "“And” between values parts separate entries of the source, which are not always exact repeats. Identical values can stand only once. Marks after values point to notes of the source that are not given here.",
  "data": [
    {"smiles": "COc1ccc(C[C@@H](C)[C@@H](C)Cc2ccc(OC)c(OC)c2)cc1OC", "note": "[M4N, tetra-O-methylnordihydroguaiaretic acid]", "values": [
      {"measurement": "\"threshold\" concentration above which the percentage of viable cells decreases precipitously", "setting": "TC-1 cell line", "result": 40, "unit": "µM"},
      {"measurement": "histopathology of treated tumors", "setting": "C3 tumor [1]", "result": "significant necrosis"},
      {"measurement": "cells showing G2/M DNA content", "setting": "CEM-T4 cells", "result": "> 90", "unit": "%"},
      {"measurement": "rate of cell growth following the change to drug-free media", "setting": "C3 cells; 40 μM for 73 hours, then media with 1% DMSO only", "result": "not notably increased"},
      {"measurement": "fraction of viable cells compared to the total cell count", "setting": "C3 cells; 40 μM in 1% DMSO", "result": "remained constant"},
      {"measurement": "growth and division of C3 cells", "setting": "C3 cells; 40 μM in 1% DMSO, versus DMSO only control", "result": "markedly reduced"},
      {"measurement": "\"threshold\" concentration above which the percentage of viable cells decreases precipitously", "setting": "C3 cells; C3 cells", "result": 60, "unit": "µM"},
      {"measurement": "cell death after prolonged exposure", "setting": "C3 cells; C3 cells, eight days, 40 μM", "result": "no increase in cell death"},
      {"measurement": "viable fraction of arrested cells", "setting": "C3 cells; the four cell lines treated (C3, CEM-T4, C33a, TC-1), up to the threshold concentration", "result": "> 95", "unit": "%"},
      {"measurement": "amount of CDC2 mRNA", "setting": "CDC2 mRNA; 24 hours", "result": "reduced"},
      {"measurement": "amount of CDC2 mRNA", "setting": "CDC2 mRNA; 72 hours", "result": "nearly eliminated"},
      {"measurement": "Cyclin-dependent kinase 7 expression, Treated", "setting": "[2]; 40 μM, Untreated = 100%", "result": "(5%)"},
      {"measurement": "Cysteine protease expression, Treated", "setting": "[2]; 40 μM, Untreated = 100%", "result": "(7%)"},
      {"measurement": "Human TNF-related Apoptosis AP02 expression, Treated", "setting": "[2]; 40 μM, Untreated = 100%", "result": "(3%)"},
      {"measurement": "Human cytokine receptor expression, Treated", "setting": "[2]; 40 μM, Untreated = 100%", "result": "(2%)"},
      {"measurement": "Proliferating cell nuclear antigen, PCNA expression, Treated", "setting": "[2]; 40 μM, Untreated = 100%", "result": "(1%)"},
      {"measurement": "Increase: Apoptosis (APO-1) antigen", "setting": "[2]; 40 μm, vs C3 DMSO", "result": "(100X)"},
      {"measurement": "Increase: Cyclin-dependent kinase inhibitor", "setting": "[2]; 40 μm, vs C3 DMSO", "result": "(100X)"},
      {"measurement": "Increase: Death Domain Three DR3", "setting": "[2]; 40 μm, vs C3 DMSO", "result": "(100X)"},
      {"measurement": "Increase: Human Map Kinase", "setting": "[2]; 40 μm, vs C3 DMSO", "result": "(40X)"},
      {"measurement": "Increase: Ras-related protein RAP-1", "setting": "[2]; 40 μm, vs C3 DMSO", "result": "(60X)"},
      {"measurement": "reduction in survivin expression", "setting": "survivin gene expression; 24 hours", "result": 65, "unit": "%"},
      {"measurement": "reduction in survivin expression", "setting": "survivin gene expression; 72 hours", "result": 80, "unit": "%"},
      {"measurement": "body weight changes during the entire experimental period", "setting": "C3 tumor [3]; Tables 1 and 2", "result": "insignificant"},
      {"measurement": "tumor growth in mice", "setting": "C3 tumor [3]; daily injection of 50 μl to 100 μl for several days", "result": "completely stop tumor growth"},
      {"measurement": "average weight of treated lesions", "setting": "C3 tumor [3]; mice carrying multiple tumors, drug injected into one of the tumors", "result": 0.15, "unit": "g"},
      {"measurement": "Body wt. Day 1", "setting": "C3 tumor [3]; [4]", "result": "17.8 g and 20.2 g and 17.5 g"},
      {"measurement": "Body wt. Day 24", "setting": "C3 tumor [3]; [4]", "result": "20.0 g and 17.9 g and 22.1 g"},
      {"measurement": "Wt. Of Excised Lesion, Treated", "setting": "C3 tumor [3]; mice carrying multiple tumors, drug injected directly to the tumor regions, per mouse", "result": "0.11 g and 0.25 g and 0.1 g"},
      {"measurement": "average weight of excised lesions", "setting": "C3 tumor [3]; mice carrying single tumors, control group 1.48 g", "result": 0.142, "unit": "g"},
      {"measurement": "Body wt. Day 1", "setting": "C3 tumor [3]; [5]", "result": "19 g and 18.2 g and 19.5 g and 17 g and 18.9 g and 17.2 g and 17.3 g"},
      {"measurement": "Body wt. Day 16", "setting": "C3 tumor [3]; [5]", "result": "19.2 g and 17.6 g (2×) and 20.0 g"},
      {"measurement": "Body wt. Day 24", "setting": "C3 tumor [3]; [5]", "result": "20.4 g and 20.2 g"},
      {"measurement": "Wt. Of Excised Lesion Day 16", "setting": "C3 tumor [3]; [5]", "result": "0.2 g and 0.4 g and 0.1 g and 0 g"},
      {"measurement": "Wt. Of Excised Lesion Day 24", "setting": "C3 tumor [3]; [5]", "result": "0.1 g and 0 g"},
      {"measurement": "Wt. Of Excised Lesion, taken on Day 15", "setting": "C3 tumor [3]; mouse 17, single tumor", "result": "0.2** g"}
    ]}
  ]
}
